Measurements published in patent US20230321101A1, “METHODS AND USES OF HALOFUGINONE” (The Regents of the University of California, priority 2020, published 2023).
pEC50, pIC50: −log10 of the molar value. Entries after “also recorded” stand apart in the source; their conditions may differ. Like-named read-outs stand apart in the source and are kept apart here.

Columns and labels:
ZIKV (Zika virus) = experiment: ZIKV antiviral immunofluorescence assay in SH-SY5Y cells; assay type: cell-based
Procedure: (§1) Experimental Procedure. The antiviral activity of 8 dilutions of each compound was explored by adding the drug to the assay cells 2 h after infection with the different viruses. Virus and compounds were left on the cells for the entire duration of the experiment (28 h for Zika virus and 24 h for all other viruses). The cytotoxicity of the same range of concentrations of compounds was determined by LDH release assay in the same cell lines.
(§2) Cell plating. Cells were detached and counted following SOP-RA 003 and SOP-RA 004. Count was recorded in the Cell Count Logbook, Volume 1. For each virus four plates were seeded, two for the antiviral assay and two for the cytotoxicity assay. Cells were seeded in 100 μl/well of complete media at the following densities: • Huh7: 8,000 cells/well (Dengue) • SH-SY5Y: 10,000 cells/wells (Zika) • HeLa Tzmbl: 8,000 cells/well (HIV)
(§3) Compounds dilutions. The 22.1 mM stocks were further diluted to 1 mM in DMSO by adding 211 μl of DMSO to 10 μl of compound. Three serial dilutions were prepared in different media for different viruses/cells. For each dilution, drugs were prepared at twice the final concentration in 50 μl volume, because they are diluted to the final concentration by an equal volume of virus or media.
(§4) Infection. Cells were infected in 50 μl of supplemented media/well at the following multiplicity of infection (MOI): • DENV-2, MOI 1 • ZIKV, MOI 5 • HIV, MOI 0.5
(§5) After removing culture media from cells, 50 μl of virus dilution were added to all wells except Column 11 (uninfected control), where the same volume of supplemented media was added. […]
(§6) Infectivity readout. […] The primary antibodies were detected with an Alexa-488 conjugate secondary antibody (Life Technologies, A11001), and nuclei were stained with Hoechst. Images were acquired on a CellInsight CX5 high content platform (Thermo Scientific) using a 4× objective, and percentage infection calculated using CellInsight CX5 software (infected cells/total cells×100).
(§7) Determination of % Inhibition—IF assay. Normalized percentages of inhibition were calculated using the following formula: […]

HIV-1 = HIV-1 antiviral immunofluorescence assay in HeLa Tzmbl cells; assay type: cell-based; conditions: HeLa Tzmbl
Procedure: as §1, §2, §3, §4, §5, §6, §7

DENV-2 (Dengue) = experiment: DENV-2 antiviral immunofluorescence assay in Huh7 cells; assay type: cell-based
Procedure: as §1, §2, §3, §4, §5, §6, §7

authentic SARS-CoV-2 = experiment: microbe, parasite or virus in culture; assay type: cell-based; conditions: for effect on authentic SARS-CoV-2 infection: Vero E6; for pIC50: Severe acute respiratory syndrome coronavirus 2, Vero C1008, read-out: IC50 of SARS-CoV-2 infection
[1] = tested on: cell surface heparan sulfate of Hep3B cells; experiment: Heparan sulfate presentation by anti-HS mAb 10E4 staining of Hep3B cells; assay type: cell-based, human; conditions: for effect on halofuginone-induced reduction in heparan sulfate production (10E4 binding): co-incubated with halofuginone
[2] = tested on: recombinant SARS-CoV-2 spike RBD protein binding to Hep3B cells; conditions: for decrease of SARS-CoV-2 RBD binding compared to excipient control (DMSO): 18 h; for effect on halofuginone-induced reduction in spike protein binding: co-incubated with halofuginone
[3] = ProSA at 50 μM, halofuginone 500 nM

CC(C)(C)OC(=O)N1CCCC(O)[C@H]1CC(=O)Cn1cnc2cc(Br)c(Cl)cc2c1=O (some centres unmarked)
antiviral activity against ZIKV (ZIKV (Zika virus)): did not display antiviral activity | antiviral activity against HIV-1 (HIV-1): did not display antiviral activity | antiviral activity against DENV-2 (DENV-2 (Dengue); Huh7): did not display antiviral activity

O=C(CC1NCCCC1O)Cn1cnc2cc(Br)c(Cl)cc2c1=O (single isomer, unassigned) [2S,3R-(−)enantiomer]
effect on authentic SARS-CoV-2 infection (authentic SARS-CoV-2): No inhibition was observed

Nc1ncn([C@@H]2O[C@H](CO)[C@@H](O)[C@H]2O)c(=O)n1 [5-Azacytidine]
effect on heparan sulfate presentation (10E4 binding) [1]: reduced heparan sulfate presentation

Nc1ncn([C@H]2C[C@H](O)[C@@H](CO)O2)c(=O)n1 [5-Azadeoxycitidine]
effect on heparan sulfate presentation (10E4 binding) [1]: reduced heparan sulfate presentation

Nc1ncnc2c1c(I)cn2[C@@H]1O[C@H](CO)[C@@H](O)[C@H]1O [5-Iodotubercidin]
effect on heparan sulfate presentation (10E4 binding) [1]: reduced heparan sulfate presentation

CNC(=O)Nc1ccc2c(c1)CC[C@@]21OC(=O)N(CC(=O)N(Cc2ccc(F)cc2)[C@@H](C)C(F)(F)F)C1=O [A-485]
effect on heparan sulfate presentation (10E4 binding) [1]: reduced heparan sulfate presentation

O=C(/C=C/c1cccc(S(=O)(=O)Nc2ccccc2)c1)NO [Belinostat]
effect on heparan sulfate presentation (10E4 binding) [1]: increased 10E4 staining | effect on spike (RBD) protein binding [2]: reduced spike protein by more than two-fold | decrease of SARS-CoV-2 RBD binding compared to excipient control (DMSO) ([2]; 5 μM): ~50%

c1nn(C2CCOCC2)cc1Nc1ncc2nnn(-c3ccc4cn[nH]c4c3)c2n1 [GCN2-IN-1]
effect on heparan sulfate presentation (10E4 binding) [1]: reduced in heparan sulfate production; also recorded: reduced 10E4 and spike RBD binding almost to the same extent as halofuginone | effect on halofuginone-induced reduction in heparan sulfate production (10E4 binding) [1]: reversed the halofuginone induced reduction in 10E4 or spike protein binding | effect on halofuginone-induced reduction in spike protein binding [2]: reversed the halofuginone induced reduction in 10E4 or spike protein binding

Cn1cc(-c2ccc3c(c2)CCN3C(=O)Cc2cccc(C(F)(F)F)c2)c2c(N)ncnc21 [GSK2606414]
effect on heparan sulfate presentation (10E4 binding) [1]: Neither PERKi nor ISRIB affected 10E4 or spike RBD binding | effect on halofuginone-induced reduction in heparan sulfate production (10E4 binding) [1]: reversed the halofuginone induced reduction in 10E4 or spike protein binding | effect on halofuginone-induced reduction in heparan sulfate production (10E4 binding) ([1]; listed as PERKi): unable to attenuate the halofuginone-induced reduction in heparan sulfate production | effect on spike (RBD) protein binding [2]: Neither PERKi nor ISRIB affected 10E4 or spike RBD binding | effect on halofuginone-induced reduction in spike protein binding [2]: reversed the halofuginone induced reduction in 10E4 or spike protein binding | effect on halofuginone-induced reduction in spike protein binding ([2]; listed as PERKi): unable to attenuate the halofuginone-induced reduction in heparan sulfate production and Spike protein binding

O=C(COc1ccc(Cl)cc1)NC1CCC(NC(=O)COc2ccc(Cl)cc2)CC1 (centres unmarked) [ISRIB]
effect on heparan sulfate presentation (10E4 binding) [1]: Neither PERKi nor ISRIB affected 10E4 or spike RBD binding | effect on halofuginone-induced reduction in heparan sulfate production (10E4 binding) [1]: unable to attenuate the halofuginone-induced reduction in heparan sulfate production; also recorded: nor ISRIB reversed the halofuginone induced reduction in 10E4 or spike protein binding | effect on spike (RBD) protein binding [2]: Neither PERKi nor ISRIB affected 10E4 or spike RBD binding

CC(C)(C)OC(=O)N1CCC[C@H](O)[C@H]1CC(=O)Cn1cnc2cc(Br)c(Cl)cc2c1=O [MAZ1310]
effect on heparan sulfate presentation (10E4 binding) [1]: had no effect | effect on spike (RBD) protein binding [2]: had no effect | effect on authentic SARS-CoV-2 infection (authentic SARS-CoV-2): did not have any activity

Nc1ncnc2c1ncn2[C@@H]1O[C@H](COS(=O)(=O)NC(=O)[C@@H]2CCCN2)[C@@H](O)[C@H]1O [ProSA, prolyl-sulfamoyl adenosine]
effect on heparan sulfate presentation ([1]; 1 μM): unable to inhibit heparan sulfate inhibition and Spike protein binding | effect on HS presentation (mAb 10E4 stain) [1, 3]: prevented HS presentation and spike RBD binding to similar levels as treatment with halofuginone | effect on Spike protein binding ([2]; 1 μM): unable to inhibit heparan sulfate inhibition and Spike protein binding | effect on spike RBD binding [2, 3]: prevented HS presentation and spike RBD binding to similar levels as treatment with halofuginone | effect on authentic SARS-CoV-2 infection (authentic SARS-CoV-2): inhibited authentic SARS-CoV-2 infection of Vero E6 cells; also recorded: inhibit infection by authentic SARS-CoV-2 when provided at higher doses

CCC(CC)COC(=O)[C@H](C)N[P@](=O)(OC[C@H]1O[C@@](C#N)(c2ccc3c(N)ncnn23)[C@H](O)[C@@H]1O)Oc1ccccc1 [Remdesivir]
pIC50 (authentic SARS-CoV-2): 5.10

C/C=C1\NC(=O)[C@H]2CSSCC/C=C/[C@H](CC(=O)N[C@H](C(C)C)C(=O)N2)OC(=O)[C@H](C(C)C)NC1=O [Romidepsin]
decrease of SARS-CoV-2 RBD binding compared to excipient control (DMSO) ([2]; 1 μM): ~50%

Nc1ncnc2c1ncn2C1OC(COS(=O)(=O)NC(=O)[C@@H](N)CO)[C@@H](O)[C@H]1O (some centres unmarked) [SerSA, seryl-sulfamoyl adenosine]
effect on spike (RBD) protein binding [2]: Neither of these AARS inhibitors were able to significantly attenuate | effect on authentic SARS-CoV-2 infection (authentic SARS-CoV-2): Neither of these AARS inhibitors were able to significantly attenuate viral replication

COc1cc2c(NC3CCN(C(C)C)CC3)nc(C3CCCCC3)nc2cc1OCCCN1CCCC1 [UNC0638]
effect on heparan sulfate presentation (10E4 binding) [1]: increased the total amount of heparan sulfate

C[C@@H]1C[C@H](C)C[C@H](C)[C@@H](O)CC(=O)O[C@H]([C@@H]2CCC[C@H]2C(=O)O)C/C=C/C=C(/C#N)[C@H](O)[C@@H](C)C1 [borrelidin]
effect on heparan sulfate presentation (10E4 binding) [1]: Inhibits HS production | effect on spike (RBD) protein binding [2]: Neither of these AARS inhibitors were able to significantly attenuate | effect on spike (RBD) protein binding ([2]; listed as Borrelidin): not SARS-CoV-2 Spike RBD protein binding | effect on authentic SARS-CoV-2 infection (authentic SARS-CoV-2): Neither of these AARS inhibitors were able to significantly attenuate viral replication

CCN(CC)CCCC(C)Nc1ccnc2cc(Cl)ccc12 (centres unmarked) [chloroquine]
pIC50 (authentic SARS-CoV-2): 5.72

O=c1c2cc(Cl)c(Br)cc2ncn1C[C@H](O)C[C@H]1NCCC[C@@H]1O [halofuginol]
effect on heparan sulfate presentation (10E4 binding) [1]: significantly decreased 10E4 and spike RBD binding | effect on spike (RBD) protein binding [2]: significantly decreased 10E4 and spike RBD binding | antiviral activity against ZIKV (ZIKV (Zika virus)): antiviral activity only against HIV-1 | effect on authentic SARS-CoV-2 infection (authentic SARS-CoV-2): inhibited authentic SARS-CoV-2 infection of Vero E6 cells; also recorded: inhibit infection by authentic SARS-CoV-2 when provided at higher doses | pEC50 (HIV-1; MOI 0.5, drug added 2 h after infection, 24 h, read-out: EC50 HIV-1): 6.46 | inhibition of DENV-2 (DENV-2 (Dengue); Huh7, highest concentration tested (1000 nM)): ~60%
